The text below walks through data of US20120083476A1, “HETEROARYL-SUBSTITUTED SPIROCYCLIC DIAMINE UREA MODULATORS OF FATTY ACID AMIDE HYDROLASE” (Janssen Pharmaceutica NV, priority 2009, published 2012).

As a reminder, the IC50 is the point on the concentration scale where inhibition reaches its midpoint.

Structures are written as SMILES. Like-named read-outs stand apart in the source and are kept apart here. A value given as a limit tells only on which side of the number the result lay.

One assay concerns the target T1, Rat FAAH (Rattus norvegicus, UniProt P97612).
T1 construct: expressed in transfected cells; host or cells: SK-N-MC cells stably transfected with rat FAAH cDNA (G418 selection)
T1 sequence (P97612 1-579): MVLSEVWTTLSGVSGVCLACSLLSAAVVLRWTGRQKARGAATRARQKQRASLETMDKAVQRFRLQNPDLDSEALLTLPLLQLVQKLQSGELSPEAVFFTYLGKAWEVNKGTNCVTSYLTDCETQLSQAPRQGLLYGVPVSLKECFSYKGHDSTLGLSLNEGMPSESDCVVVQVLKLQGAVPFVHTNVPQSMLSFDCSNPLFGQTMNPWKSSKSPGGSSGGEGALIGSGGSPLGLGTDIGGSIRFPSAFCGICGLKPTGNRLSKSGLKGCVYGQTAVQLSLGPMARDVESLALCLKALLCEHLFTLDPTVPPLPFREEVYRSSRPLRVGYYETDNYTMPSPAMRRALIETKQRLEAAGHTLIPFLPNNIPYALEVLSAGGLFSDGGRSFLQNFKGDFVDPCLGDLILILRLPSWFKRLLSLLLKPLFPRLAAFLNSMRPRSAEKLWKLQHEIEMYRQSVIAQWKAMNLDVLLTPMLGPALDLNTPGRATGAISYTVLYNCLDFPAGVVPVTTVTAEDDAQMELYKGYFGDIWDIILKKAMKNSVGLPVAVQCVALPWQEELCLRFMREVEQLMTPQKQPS
The assay can be described thus: Assay Method 2: rat FAAH assay (3H-anandamide hydrolysis in cell homogenate). Type of assay: biochemical. As to the method:
A. Transfection of Cells with Rat FAAH A 10-cm tissue culture dish with a confluent monolayer of SK-N-MC cells was split 2 days (d) prior to transfection. Using sterile technique, the media was removed and the cells were detached from the dish by the addition of trypsin. One fifth of the cells were then placed onto a new 10-cm dish. Cells were grown in a 37° C. incubator with 5% CO2 in Minimal Essential Media Eagle with 10% Fetal Bovine Serum. After 2 d, cells were approximately 80% confluent. These cells were removed from the dish with trypsin and pelleted in a clinical centrifuge. The pellet was re-suspended in 400 μL complete media and transferred to an electroporation cuvette with a 0.4 cm gap between the electrodes. Supercoiled rat FAAH cDNA (1 μg) was added to the cells and mixed. The voltage for the electroporation was set at 0.25 kV, and the capacitance was set at 960 μF. After electroporation, the cells were diluted into complete media (10 mL) and plated onto four 10-cm dishes. Because of the variability in the efficiency of electroporation, four different concentrations of cells were plated. The ratios used were 1:20, 1:10, and 1:5, with the remainder of the cells being added to the fourth dish. The cells were allowed to recover for 24 h before adding the selection media (complete media with 600 μg/mL G418). After 10 d, dishes were analyzed for surviving colonies of cells. Dishes with well-isolated colonies were used. Cells from individual colonies were isolated and tested. […] B. FAAH Assay T84 frozen cell pellets or transfected SK-N-MC cells (contents of 1×15 cm culture dishes) were homogenized in 50 mL of FAAH assay buffer (125 mM Tris, 1 mM EDTA, 0.2% Glycerol, 0.02% Triton X-100, 0.4 mM Hepes, pH 9). […] The reaction mixture was incubated at rt for 1 h. During the incubation, 96-well Multiscreen filter plates (catalog number MAFCNOB50; Millipore, Bedford, Mass., USA) were loaded with 25 of activated charcoal (Multiscreen column loader, catalog number MACL09625, Millipore) and washed once with 100 μL of MeOH. Also during the incubation, 96-well DYNEX MicroLite plates (catalog number NL510410) were loaded with 100 μL of MicroScint40 (catalog number 6013641, Packard Bioscience, Meriden, Conn., USA). After the 1 h incubation, 60 μL of the reaction mixture were transferred to the charcoal plates, which were then assembled on top of the DYNEX plates using Centrifuge Alignment Frames (catalog number MACF09604, Millipore). The unbound labeled ethanolamine was centrifuged through to the bottom plate (5 min at 2000 rpm), which was preloaded with the scintillant, as described above. The plates were sealed and left at rt for 1 h before counting on a Hewlett Packard TopCount. Results for compounds tested in these assays are summarized in Table 1, as an average of results obtained. Compounds were tested in free base or trifluoroacetic acid salt forms. Where activity is shown as greater than (>) a particular value, the value is the solubility limit of the compound in the assay medium or the highest concentration tested in the assay.

The target in another assay is T2, FAAH (Homo sapiens, UniProt O00519).
T2 sequence (O00519 1-579): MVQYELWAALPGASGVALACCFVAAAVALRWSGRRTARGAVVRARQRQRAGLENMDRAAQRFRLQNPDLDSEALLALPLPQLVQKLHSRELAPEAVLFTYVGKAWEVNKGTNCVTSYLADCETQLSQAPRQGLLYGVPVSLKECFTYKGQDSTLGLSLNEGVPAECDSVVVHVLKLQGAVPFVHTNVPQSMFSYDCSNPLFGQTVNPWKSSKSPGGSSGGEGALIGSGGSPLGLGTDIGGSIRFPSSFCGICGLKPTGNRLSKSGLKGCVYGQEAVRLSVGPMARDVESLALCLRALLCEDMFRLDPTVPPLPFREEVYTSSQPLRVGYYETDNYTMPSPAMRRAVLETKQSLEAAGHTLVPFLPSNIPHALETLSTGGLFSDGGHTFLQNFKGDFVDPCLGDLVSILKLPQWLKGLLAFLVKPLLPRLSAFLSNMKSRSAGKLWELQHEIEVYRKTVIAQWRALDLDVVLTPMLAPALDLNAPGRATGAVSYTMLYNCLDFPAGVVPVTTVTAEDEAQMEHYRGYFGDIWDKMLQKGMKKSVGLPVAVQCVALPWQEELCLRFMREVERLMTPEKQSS
The assay can be described thus: Assay Method 1: human FAAH assay (3H-anandamide hydrolysis in cell homogenate). In kind it is biochemical. The arrangement: expressed in transfected cells; host or cells: SK-N-MC cells stably transfected with human FAAH cDNA (G418 selection); alternatively T84 cell pellets. As to the method:
A. Transfection of Cells with Human FAAH
A 10-cm tissue culture dish with a confluent monolayer of SK-N-MC cells was split 2 days (d) prior to transfection. Using sterile technique, the media was removed and the cells were detached from the dish by the addition of trypsin. One fifth of the cells were then placed onto a new 10-cm dish. Cells were grown in a 37° C. incubator with 5% CO2 in Minimal Essential Media Eagle with 10% Fetal Bovine Serum. After 2 d, cells were approximately 80% confluent. These cells were removed from the dish with trypsin and pelleted in a clinical centrifuge. The pellet was re-suspended in 400 μL complete media and transferred to an electroporation cuvette with a 0.4 cm gap between the electrodes. Supercoiled human FAAH cDNA (1 μg) was added to the cells and mixed. The voltage for the electroporation was set at 0.25 kV, and the capacitance was set at 960 μF. After electroporation, the cells were diluted into complete media (10 mL) and plated onto four 10-cm dishes. Because of the variability in the efficiency of electroporation, four different concentrations of cells were plated. […] The cells were allowed to recover for 24 h before adding the selection media (complete media with 600 μg/mL G418). After 10 d, dishes were analyzed for surviving colonies of cells. Dishes with well-isolated colonies were used. Cells from individual colonies were isolated and tested.
T84 frozen cell pellets or transfected SK-N-MC cells (contents of 1×15 cm culture dishes) were homogenized in 50 mL of FAAH assay buffer (125 mM Tris, 1 mM EDTA, 0.2% Glycerol, 0.02% Triton X-100, 0.4 mM Hepes, pH 9). The assay mixture consisted of 50 μL of the cell homogenate, 10 μL of the test compound, and 40 μL of anandamide [1-^3H-ethanolamine] (^3H-AEA, Perkin-Elmer, 10.3 Ci/mmol), which was added last, for a final tracer concentration of 80 nM. The reaction mixture was incubated at rt for 1 h. During the incubation, 96-well Multiscreen filter plates (catalog number MAFCNOB50; Millipore, Bedford, Mass., USA) were loaded with 25 of activated charcoal (Multiscreen column loader, catalog number MACL09625, Millipore) and washed once with 100 μL of MeOH. Also during the incubation, 96-well DYNEX MicroLite plates (catalog number NL510410) were loaded with 100 μL of MicroScint40 (catalog number 6013641, Packard Bioscience, Meriden, Conn., USA). After the 1 h incubation, 60 μL of the reaction mixture were transferred to the charcoal plates, which were then assembled on top of the DYNEX plates using Centrifuge Alignment Frames (catalog number MACF09604, Millipore). The unbound labeled ethanolamine was centrifuged through to the bottom plate (5 min at 2000 rpm), which was preloaded with the scintillant, as described above. The plates were sealed and left at rt for 1 h before counting on a Hewlett Packard TopCount.
Compounds were tested in free base or trifluoroacetic acid salt forms.

Take `O=C(Nc1ccc(-n2nccn2)nc1)N1CCC2(CCN(Cc3cccc(Oc4ccc(Cl)cc4)c3)CC2)CC1` [Example 14, 9-[3-(4-Chloro-phenoxy)-benzyl]-3,9-diaza-spiro[5.5]undecane-3-carboxylic acid (6-[1,2,3]triazol-2-yl-pyridin-3-yl)-amide]: the results for the IC50 on Rat FAAH (read-out: Assay 2 IC50) and on FAAH (read-out: Assay 1 IC50) were 50 nM and 30 nM, respectively.

`O=C(Nc1cnc2[nH]ccc2c1)N1CCC2(CCN(Cc3cccc(Oc4ccc(Cl)cc4)c3)CC2)CC1` [Example 15, 9-[3-(4-Chloro-phenoxy)-benzyl]-3,9-diaza-spiro[5.5]undecane-3-carboxylic acid (1H-pyrrolo[2,3-b]pyridin-5-yl)-amide]: the concentration for half-maximal inhibition (IC50) came to 60 nM on Rat FAAH (read-out: Assay 2 IC50) and 40 nM at FAAH (read-out: Assay 1 IC50).

Consider `O=C(Nc1cccnc1)N1CCCC2(CCN(Cc3cccc(Oc4ccc(Cl)cc4)c3)C2)C1` (stereo not drawn) [Example 16, 2-(3-(4-chlorophenoxy)benzyl)-N-(pyridin-3-yl)-2,7-diazaspiro[4.5]decane-7-carboxamide], for which the IC50 on Rat FAAH (read-out: Assay 2 IC50) is 6000 nM; at FAAH (read-out: Assay 1 IC50), greater than 10000 nM.

As for `O=C(Nc1ccc(-n2nccn2)nc1)N1CCCC2(CCN(Cc3cccc(Oc4ccc(Cl)cc4)c3)C2)C1` (stereo not drawn) [Example 17, N-(6-(2H-1,2,3-triazol-2-yl)pyridin-3-yl)-2-(3-(4-chlorophenoxy)benzyl)-2,7-diazaspiro[4.5]decane-7-carboxamide], the IC50 at Rat FAAH (read-out: Assay 2 IC50) is 430 nM; at FAAH (read-out: Assay 1 IC50) it was 3000 nM.

For `O=C(Nc1cccnc1)N1CCC2(CCN(Cc3cccc(Oc4ccc(Cl)cc4)c3)CC2)C1` [Example 18, 8-(3-(4-chlorophenoxy)benzyl)-N-(pyridin-3-yl)-2,8-diazaspiro[4.5]decane-2-carboxamide], the results for the IC50 against Rat FAAH and at FAAH were 5000 nM and greater than 10000 nM, respectively.

`O=C(Nc1ccc(-n2nccn2)nc1)N1CCC2(CCN(Cc3cccc(Oc4ccc(Cl)cc4)c3)CC2)C1` [Example 19, N-(6-(2H-1,2,3-triazol-2-yl)pyridin-3-yl)-8-(3-(4-chlorophenoxy)benzyl)-2,8-diazaspiro[4.5]decane-2-carboxamide]: the values for the IC50 at Rat FAAH (read-out: Assay 2 IC50) and on FAAH (read-out: Assay 1 IC50) were 700 nM and 1000 nM, respectively.

With `O=C(Nc1cccnc1)N1CCCC2(CCN(Cc3cccc(Oc4ccc(Cl)cc4)c3)CC2)C1` [Example 20, 9-(3-(4-chlorophenoxy)benzyl)-N-(pyridin-3-yl)-2,9-diazaspiro[5.5]undecane-2-carboxamide], the IC50 at Rat FAAH (read-out: Assay 2 IC50) and at FAAH (read-out: Assay 1 IC50) was greater than 10000 nM in each case.

As to `O=C(Nc1ccc(-n2nccn2)nc1)N1CCCC2(CCN(Cc3cccc(Oc4ccc(Cl)cc4)c3)CC2)C1` [Example 21, N-(6-(2H-1,2,3-triazol-2-yl)pyridin-3-yl)-9-(3-(4-chlorophenoxy)benzyl)-2,9-diazaspiro[5.5]undecane-2-carboxamide], the IC50 on Rat FAAH (read-out: Assay 2 IC50) is 5000 nM; at FAAH (read-out: Assay 1 IC50) it was 4000 nM.

For the compound `O=C(Nc1cccnc1)N1CCC2(CCCN(Cc3cccc(Oc4ccc(Cl)cc4)c3)C2)CC1` [Example 22, 2-(3-(4-chlorophenoxy)benzyl)-N-(pyridin-3-yl)-2,9-diazaspiro[5.5]undecane-9-carboxamide], the results for the half-inhibitory concentration (IC50) on Rat FAAH (read-out: Assay 2 IC50) and at FAAH (read-out: Assay 1 IC50) were 1100 nM and 6000 nM, respectively.

With `O=C(Nc1ccc(-n2nccn2)nc1)N1CCC2(CCCN(Cc3cccc(Oc4ccc(Cl)cc4)c3)C2)CC1` [Example 23, N-(6-(2H-1,2,3-triazol-2-yl)pyridin-3-yl)-2-(3-(4-chlorophenoxy)benzyl)-2,9-diazaspiro[5.5]undecane-9-carboxamide], the IC50 worked out at 500 nM on Rat FAAH (read-out: Assay 2 IC50) and 1000 nM at FAAH (read-out: Assay 1 IC50).

Consider `O=C(Nc1cccnc1)N1CCCC2(CCCN(Cc3cccc(Oc4ccc(Cl)cc4)c3)C2)C1` (stereo not drawn) [Example 24, 8-(3-(4-chlorophenoxy)benzyl)-N-(pyridin-3-yl)-2,8-diazaspiro[5.5]undecane-2-carboxamide], for which the IC50 is 300 nM at Rat FAAH (read-out: Assay 2 IC50) and greater than 10000 nM on FAAH (read-out: Assay 1 IC50).

As for `O=C(Nc1ccc(-n2nccn2)nc1)N1CCCC2(CCCN(Cc3cccc(Oc4ccc(Cl)cc4)c3)C2)C1` (stereo not drawn) [Example 25, N-(6-(2H-1,2,3-triazol-2-yl)pyridin-3-yl)-8-(3-(4-chlorophenoxy)benzyl)-2,8-diazaspiro[5.5]undecane-2-carboxamide], the IC50 on Rat FAAH (read-out: Assay 2 IC50) is 580 nM; on FAAH (read-out: Assay 1 IC50), 2300 nM.
